According to patent US9730445B2, “Herbicidal compositions comprising 4-amino-3-chloro-5-fluoro-6-(4-chloro-2-fluoro-3-methoxyphenyl) pyridine-2-carboxylic acid or a derivative thereof and fungicides” (DOW AGROSCIENCES LLC, priority 2013, dated 2017):

Assays:
Assay in all cases: Postemergence foliar-applied weed control, direct-seeded rice (greenhouse)
CYPES = assay type: in vivo, Cyperus esculentus L. (yellow nutsedge); conditions: r45 ester 8 g ae/ha alone, r46-48 kasugamycin 17.5/35/70 g ai/ha alone, r49-51 ester 8 + 17.5/35/70
Description: (§1) Seeds or nutlets of the desired test plant species were planted in a soil matrix prepared by mixing aloam or sandy loam soil (e.g., 28.6 percent silt, 18.8 percent clay, and 52.6 percent sand, with a pH of about 5.8 and an organic matter content of about 1.8 percent) and calcareous grit in an 80 to 20 ratio. The soil matrix was contained in plastic pots with a volume of 1 quart and a surface area of 83.6 square centimeters (cm^2). […] The plants were grown for 8-22 days in a greenhouse with an approximate 14 hour (h) photoperiod which was maintained at about 29° C. during the day and 26° C. during the night. Nutrients (Peters Excel® 15-5-15 5-Ca 2-Mg and iron chelate) were applied in the irrigation solution as needed and water was added on a regular basis. Supplemental lighting was provided with overhead metal halide 1000-Watt lamps as necessary. The plants were employed for testing when they reached the first through fourth true leaf stage.
(§2) Treatments consisted of the acid or esters of 4-amino-3-chloro-5-fluoro-6-(4-chloro-2-fluoro-3-methoxy-phenyl)pyridine-2-carboxylic acid (Compound A), each formulated as an SC (suspension concentrate), and various fungicidal components alone and in combination. Forms of compound A were applied on an acid equivalent basis.
(§3) For treatments comprised of formulated compounds, measured amounts of compounds were placed individually in 25 mL glass vials and diluted in a volume of 1.25% volume per volume (v/v) Agri-Dex® crop oil concentrate to obtain 12× stock solutions. […] Application solutions were prepared by adding an appropriate amount of each stock solution (e.g., 1 mL) and diluted to the appropriate final concentrations with the addition of […] of an aqueous mixture of 1.25% (v/v) crop oil concentrate so that the final spray solutions contained 1.25+/−0.05% (v/v) crop oil concentrate.
(§4) For treatments comprised of technical compounds, weighed amounts can be placed individually in 25 mL glass vials and dissolved in a volume of 97:3 volume per volume (v/v) acetone/dimethyl sulfoxide (DMSO) to obtain 12× stock solutions. […] When technical materials are used, the concentrated stock solutions can be added to the spray solutions so that the final acetone and DMSO concentrations of the application solutions are 16.2% and 0.5%, respectively.
(§5) As required, additional water and/or 97:3 v/v acetone/DMSO was added to individual application solutions so that the final acetone and DMSO concentrations of the application solutions being compared were 8.1% and 0.25%, respectively
(§6) All stock solutions and applications solutions were visually inspected for compound compatibility prior to application. Spray solutions were applied to the plant material with an overhead Mandel track sprayer equipped with 8002E nozzles calibrated to deliver 187 L/ha over an application area of 0.503 square meters (m^2) at a spray height of 18 to 20 inches (46 to 50 cm) above average plant canopy height. Control plants were sprayed in the same manner with the solvent blank.
(§7) The treated plants and control plants were placed in a greenhouse as described above and watered by sub-irrigation to prevent wash-off of the test compounds. After approximately 3 weeks, the condition of the test plants as compared with that of the untreated plants was determined visually and scored on a scale of 0 to 100 percent where 0 corresponds to no injury or growth inhibition and 100 corresponds to complete kill. […]

CYPIR = assay type: in vivo, Cyperus iria L. (rice flatsedge); conditions: 21 DAA, r29-30 ester 8/16 g ae/ha alone, r31-33 kasugamycin 17.5/35/70 g ai/ha alone, r34-39 ester 8/16 at each of 17.5, 35, 70
Description: as §1, §2, §3, §4, §5, §6
(§8) The treated plants and control plants were placed in a greenhouse as described above and watered by sub-irrigation to prevent wash-off of the test compounds. After approximately 3 weeks, the condition of the test plants as compared with that of the untreated plants was determined visually and scored on a scale of 0 to 100 percent where 0 corresponds to no injury or growth inhibition and 100 corresponds to complete kill.
(§9) Colby's equation was used to determine the herbicidal effects expected from the mixtures (Colby, S. R. Calculation of the synergistic and antagonistic response of herbicide combinations. Weeds 1967, 15, 20-22.).
(§10) The following equation was used to calculate the expected activity of mixtures containing two active ingredients, A and B: Expected=A+B−(A×B/100)

DIGSA = assay type: in vivo, Digitaria sanguinalis (L.) Scop. (large crabgrass)
Excerpt: Seeds or nutlets of the desired test plant species were planted in a soil matrix prepared by mixing aloam or sandy loam soil (e.g., 28.6 percent silt, 18.8 percent clay, and 52.6 percent sand, with a pH of about 5.8 and an organic matter content of about 1.8 percent) and calcareous grit in an 80 to 20 ratio. The soil matrix was contained in plastic pots with a volume of 1 quart and a surface area of 83.6 square centimeters (cm^2). When required to ensure good germination and healthy plants, a fungicide treatment and/or other chemical or physical treatment was applied. The plants were grown for 8-22 days in a greenhouse with an approximate 14 hour (h) photoperiod which was maintained at about 29° C. during the day and 26° C. during the night. Nutrients (Peters Excel® 15-5-15 5-Ca 2-Mg and iron chelate) were applied in the irrigation solution as needed and water was added on a regular basis. Supplemental lighting was provided with overhead metal halide 1000-Watt lamps as necessary. The plants were employed for testing when they reached the first through fourth true leaf stage.
as §2
Treatment requirements were calculated based upon the rates being tested, the concentration of active ingredient or acid equivalent in the formulation and a 12 milliliter (mL) application volume at a rate of 187 liters per hectare (L/ha).
as §3, §4, §5, §6, §7

ECHOR = assay type: in vivo, Echinochloa oryzoides (Ard.) Fritsch (early watergrass)
Description: as §1, §2
For treatments comprised of formulated compounds, measured amounts of compounds were placed individually in 25 mL glass vials and diluted in a volume of 1.25% volume per volume (v/v) Agri-Dex® crop oil concentrate to obtain 12× stock solutions. […]
as §7

IPOHE = assay type: in vivo, Ipomoea hederacea (L.) Jacq. (ivyleaf morningglory)
Description: as §1, §2, §3, §4, §5, §6, §8, §9, §10

LEFCH = assay type: in vivo, Leptochloa chinensis (L.) Nees (Chinese sprangletop); conditions: 21 DAA
Description: as §1, §2, §3, §4, §5, §6, §8, §9, §10

ECHCG = assay type: in vivo, Echinochloa crus-galli (L.) P. Beauv. (barnyardgrass)
Description: as §1, §2, §3, §4, §5, §6, §8, §9, §10

[1] = r9-11 ester 8/16/32 g ae/ha alone, r12-14 kasugamycin 17.5/35/70 g ai/ha alone, r15-23 ester 8/16/32 at each of 17.5, 35, 70
[2] = r9-11 acid 5.3/10.6/21.2 g ae/ha alone, r12 difenoconazole 200 g ai/ha alone, r13-15 acid 5.3/10.6/21.2 + 200
[3] = r10-12 ester 4.38/8.75/17.5 g ae/ha alone, r13 difenoconazole 200 g ai/ha alone, r14-16 ester 4.38/8.75/17.5 + 200

CC1OC(OC2C(O)C(O)C(O)C(O)C2O)C(N)CC1NC(=N)C(=O)O.Cl [Kasugamycin, 1L-1,3,4/2,5,6-1-deoxy-2,3,4,5,6,-pentahydroxycyclohexyl 2-amino-2,3,4,6-tetradeoxy-4-(α-iminoglycino)-α-D-arabino-hexopyranoside hydrochloride hydrate, reference compound]
0%: Visual Weed Control (%)—21 DAA CYPES Obs (CYPES) | Visual Weed Control (%)—21 DAA CYPIR Obs (CYPIR) | Visual Weed Control (%)—21 DAA DIGSA Obs (DIGSA; [1]) | Visual Weed Control (%)—21 DAA ECHOR Obs (ECHOR; [1]) | Visual Weed Control (%)—21 DAA IPOHE Obs (IPOHE; [1]) | Visual Weed Control (%)—21 DAA LEFCH Obs (LEFCH; [1])

CC1COC(Cn2cncn2)(c2ccc(Oc3ccc(Cl)cc3)cc2Cl)O1 (mixture of isomers) [Difenoconazole, cis, trans-3-chloro-4-[4-methyl-2-(1H-1,2,4-triazol-1-ylmethyl)-1,3,dioxolan-2-yl]phenyl 4-chlorophenyl ether, reference compound]
0%: Visual Weed Control (%)—21 DAA DIGSA Obs (DIGSA; [2]) | Visual Weed Control (%) - 22 DAA DIGSA Obs (DIGSA; 22 DAA, r22-24 ester 8/16/32 g ae/ha alone, r25-27 difenoconazole 50/100/200 g ai/ha alone, r28-36 ester 8/16/32 at each of 50, 100, 200) | Visual Weed Control (%)—21 DAA ECHCG Obs (ECHCG; [2]) | Visual Weed Control (%) - 21 DAA ECHCG Obs (ECHCG; r58-60 ester 8/16/32 g ae/ha alone, r61-63 difenoconazole 50/100/200 g ai/ha alone, r64-72 ester 8/16/32 at each of 50, 100, 200) | Visual Weed Control (%) - 21 DAA ECHOR Obs (ECHOR; r78-80 ester 8/16/32 g ae/ha alone, r81-83 difenoconazole 50/100/200 g ai/ha alone, r84-92 ester 8/16/32 at each of 50, 100, 200) | Visual Weed Control (%) - 21 DAA IPOHE Obs (IPOHE; [3]) | Visual Weed Control (%)—21 DAA LEFCH Obs (LEFCH; [2]) | Visual Weed Control (%) - 21 DAA LEFCH Obs (LEFCH; [3]) | Visual Weed Control (%) - 21 DAA LEFCH Obs (LEFCH; r42-43 ester 16/32 g ae/ha alone, r44-46 difenoconazole 50/100/200 g ai/ha alone, r47-52 ester 16/32 at each of 50, 100, 200)
